Results as given in patent publication US6365572B1, “Low molecular weight peptide derivatives as inhibitors of the laminin/nidogen interaction” (Aventis Pharma Deutschland GmbH, priority 1999, dated 2002).
Like-named read-outs stand apart in the source and are kept apart here. Non-standard residues stand in square brackets, D forms with d. Residues, ends and D or L forms follow the SMILES beside them. *: point of attachment. Bip = N[C@@H](Cc1ccc(-c2ccccc2)cc1)C(=O)O; 1Nal = N[C@@H](Cc1cccc2ccccc12)C(=O)O; 2Nal = N[C@@H](Cc1ccc2ccccc2c1)C(=O)O; Bta = N[C@@H](Cc1csc2ccccc12)C(=O)O; NH(3-hydroxypropyl) = OCCCN*

Molecular target: T1, laminin/nidogen interaction (laminin P1, recombinantly produced human nidogen) (Homo sapiens, UniProt P14543)
T1 construct: made in house; host or cells: HEK-293
T1 sequence (P14543 29-1247): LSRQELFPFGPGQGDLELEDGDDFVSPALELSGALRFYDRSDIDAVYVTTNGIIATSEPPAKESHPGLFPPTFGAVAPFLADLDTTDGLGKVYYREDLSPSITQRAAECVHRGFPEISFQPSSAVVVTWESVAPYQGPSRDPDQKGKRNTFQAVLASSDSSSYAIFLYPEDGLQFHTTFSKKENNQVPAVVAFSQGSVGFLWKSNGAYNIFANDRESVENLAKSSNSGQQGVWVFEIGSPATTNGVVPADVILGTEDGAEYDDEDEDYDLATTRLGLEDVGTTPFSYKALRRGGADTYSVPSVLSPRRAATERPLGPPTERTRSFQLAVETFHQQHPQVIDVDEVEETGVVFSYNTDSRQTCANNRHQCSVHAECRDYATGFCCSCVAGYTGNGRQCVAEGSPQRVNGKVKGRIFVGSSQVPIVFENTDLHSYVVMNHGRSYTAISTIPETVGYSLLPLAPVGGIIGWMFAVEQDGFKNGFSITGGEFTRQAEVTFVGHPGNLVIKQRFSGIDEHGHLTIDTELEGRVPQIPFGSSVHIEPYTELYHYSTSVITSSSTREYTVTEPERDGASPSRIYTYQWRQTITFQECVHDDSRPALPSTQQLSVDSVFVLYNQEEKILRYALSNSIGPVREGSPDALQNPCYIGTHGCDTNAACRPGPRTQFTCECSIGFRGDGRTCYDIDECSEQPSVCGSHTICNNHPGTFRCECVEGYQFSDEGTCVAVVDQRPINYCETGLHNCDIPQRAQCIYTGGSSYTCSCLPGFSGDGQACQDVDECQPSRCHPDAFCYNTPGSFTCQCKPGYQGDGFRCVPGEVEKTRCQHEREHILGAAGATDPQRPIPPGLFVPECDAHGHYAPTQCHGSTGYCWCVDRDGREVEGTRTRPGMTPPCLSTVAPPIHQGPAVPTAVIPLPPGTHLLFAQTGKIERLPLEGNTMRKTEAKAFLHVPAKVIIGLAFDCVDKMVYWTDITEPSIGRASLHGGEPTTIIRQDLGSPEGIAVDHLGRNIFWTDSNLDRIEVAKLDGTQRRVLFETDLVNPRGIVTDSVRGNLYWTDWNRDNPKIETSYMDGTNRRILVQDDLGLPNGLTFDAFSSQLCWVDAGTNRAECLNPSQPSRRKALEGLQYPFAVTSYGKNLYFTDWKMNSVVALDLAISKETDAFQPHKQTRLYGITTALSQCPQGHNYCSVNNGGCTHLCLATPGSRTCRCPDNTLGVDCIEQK
Assay: HTS screening assay (time-resolved fluorescence), inhibition of laminin/nidogen binding
Details: read-out: IC50
Method: 5) The compound stocks were preincubated with nidogen (10 μl compound stock to 90 μl nidogen solution) and the assay was performed as described in the attached protocol, yielding a final screening concentration of 2.7 μM per compound. The isolation of laminin P1 from human placenta, human nidogen from transfected HEK-293 cells and mouse laminin γ1III 3-5 from HEK-293 cells is described in WO 98/31709. 3.1.1. HTS screening assay (highly sensitive assay variant): Time-Resolved Fluorescence Assay Coating of test tubes Microtiter plates (for example FluoroNunc®) were coated with 75 μl of a 0.1 μg/ml solution of laminin P1 (in 0.159 g of Na2CO3, 0.293 g of NaHCO3, 0.02 g of NaN3/liter, pH 9.2) at room temperature for 1 hour. The solution was then tipped off, and free binding sites were blocked by incubation with 0.5% BSA (in 7.9 g of NaCl, 1.2 g of Na2HPO4, 0.31 g of KCl, 0.23 g of NaH2PO4, 0.04% Tween 20/liter, pH 7.2) at room temperature for 0.5 hour. Completion of the blocking reaction was followed by decantation of the solution and washing once with 250 μl of washing buffer (PBS/0.04% Tween). Sequential inhibition In parallel with the coating, a preincubation of 85-100 μl of a 0.25 nM nidogen solution (recombinantly produced human nidogen) with inhibitor or standard was carried out in a separate reaction vessel (1 hour at room temperature in 7.9 g of NaCl, 1.2 g of Na2HPO4, 0.31 g of KCl, 0.23 g of NaH2PO4, 0.04% Tween 20/liter, 0.5% BSA, pH 7.2). 75 μl of the preincubation (nidogen+inhibitor or standard) were transferred into the coated wells of the microtiter plate and incubated at room temperature for 1 hour. This was followed by washing twice with PBS/0.04% Tween. Detection of the bound nidogen took place by incubation (at room temperature) for 1 hour with 75 μl of a specific antibody preparation obtained from yolks of eggs from a chicken immunized with human nidogen. The IgY fraction was used in a dilution of 1:500 in PBS/0.04% Tween. The complex of nidogen and specifically bound antibodies was, after washing twice with PBS/0.04% Tween, detected by adding anti-chicken IgY-biotin (75 μl of a 1:2500 dilution; Promega, Madison, Wis. 53711, 608-274-4330). An incubation time of 1 hour and washing twice with PBS/0.04% Tween were followed for this purpose by incubation with streptavidin-europium (Wallac; 1 hour at room temperature) and washing twice with PBS/0.04% Tween. It was finally possible, after adding 100 μl of enhancement solution (Wallac) and shaking for 5 minutes, to measure a fluorescence signal in a Victor multilabel counter using the europium protocol. The relation between the amount, of bound nidogen in the solutions with inhibitor and that of nidogen without added inhibitor was found.

[1] = results table 1.3, synthesized compounds 1 to 43
[2] = hit structures recovered from the pentamer library screening

Compound | IC50 [1] [nM] | IC50 [2] [nM]
CC(C)[C@H](NC(=O)[C@H](C)NC(=O)[C@H](CC(N)=O)NC(=O)C1[C@@H](c2ccc3ccccc3c2)CCN1C(=O)CCC(=O)O)C(N)=O (stereo in doubt) [Compound 34, Succinyl-L-(3R)-(2-naphthyl)prolyl-L-asparaginyl-L-alanyl-L-valine-amide] | 27 | 
CC[C@H](C)[C@H](NC(=O)[C@@H](N)CC(N)=O)C(=O)N[C@@H](CC(=O)O)C(=O)N1CCC[C@H]1C(=O)N[C@@H](CC(N)=O)C(=O)N[C@@H](C)C(=O)N[C@H](C(=O)NCC(=O)NCCCO)C(C)C [Compound 1, L-Asparaginyl-L-isoleucyl-L-aspartyl-L-prolyl-L-asparaginyl-L-alanyl-L-valyl-glycine-3-hydroxypropylamide, reference compound] (H-NIDPNAVG-{NH(3-hydroxypropyl)}) | 3900 | 
CC(C)[C@H](NC(=O)[C@H](C)NC(=O)[C@H](CC(N)=O)NC(=O)[C@@H]1CCCN1C(=O)[C@@H](N)CC(=O)O)C(=O)NCC(=O)NCCCO [Compound 2, L-Aspartyl-L-prolyl-L-asparaginyl-L-alanyl-L-valyl-glycine-3-hydroxypropylamide, reference compound] (H-DPNAVG-{NH(3-hydroxypropyl)}) | 7700 | 
CC(C)[C@H](NC(=O)[C@H](CC(=O)O)NC(=O)[C@H](CC(N)=O)NC(=O)[C@H](Cc1ccc2ccccc2c1)NC(=O)[C@@H](N)CC(=O)O)C(=O)NCC(=O)NCCCO [Compound 3, L-Aspartyl-L-3-(2-naphthyl)alanyl-L-asparaginyl-L-aspartyl-L-valyl-glycine-3-hydroxypropylamide] (H-D[2Nal]NDVG-{NH(3-hydroxypropyl)}) | 510 | 430
CC(C)[C@H](NC(=O)[C@H](CO)NC(=O)[C@H](CC(N)=O)NC(=O)[C@H](Cc1ccc2ccccc2c1)NC(=O)[C@@H](N)CC(=O)O)C(=O)NCC(=O)NCCCO [Compound 4, L-Aspartyl-L-3-(2-naphthyl)alanyl-L-asparaginyl-L-seryl-L-valyl-glycine-3-hydroxypropylamide] (H-D[2Nal]NSVG-{NH(3-hydroxypropyl)}) | 380 | 490
CC(C)[C@H](NC(=O)[C@H](C)NC(=O)[C@H](CC(N)=O)NC(=O)[C@H](Cc1ccc2ccccc2c1)NC(=O)[C@@H](N)CC(=O)O)C(=O)NCC(=O)NCCCO [Compound 5, L-Aspartyl-L-3-(2-naphthyl)alanyl-L-asparaginyl-L-alanyl-L-valyl-glycine-3-hydroxypropylamide] (H-D[2Nal]NAVG-{NH(3-hydroxypropyl)}) | 750 | 370
CC[C@H](C)[C@H](NC(=O)[C@H](CC(=O)O)NC(=O)[C@H](CC(N)=O)NC(=O)[C@H](Cc1ccc2ccccc2c1)NC(=O)[C@@H](N)CC(=O)O)C(=O)NCC(=O)NCCCO [Compound 6] (H-D[2Nal]NDIG-{NH(3-hydroxypropyl)}) | 1380 | 640
CC[C@H](C)[C@H](NC(=O)[C@H](CO)NC(=O)[C@H](CC(N)=O)NC(=O)[C@H](Cc1ccc2ccccc2c1)NC(=O)[C@@H](N)CC(=O)O)C(=O)NCC(=O)NCCCO [Compound 7, L-Aspartyl-L-3-(2-naphthyl)alanyl-L-asparaginyl-L-seryl-L-isoleucyl-glycine-3-hydroxypropylamide] (H-D[2Nal]NSIG-{NH(3-hydroxypropyl)}) | 600 | 810
CC[C@H](C)[C@H](NC(=O)[C@H](C)NC(=O)[C@H](CC(N)=O)NC(=O)[C@H](Cc1ccc2ccccc2c1)NC(=O)[C@@H](N)CC(=O)O)C(=O)NCC(=O)NCCCO [Compound 8, L-Aspartyl-L-3-(2-naphthyl)alanyl-L-asparaginyl-L-alanyl-L-isoleucyl-glycine-3-hydroxypropylamide] (H-D[2Nal]NAIG-{NH(3-hydroxypropyl)}) | 700 | 470
CC(C)[C@H](NC(=O)[C@H](C)NC(=O)[C@H](CC(N)=O)NC(=O)[C@H](Cc1cccc2ccccc12)NC(=O)[C@@H](N)CC(=O)O)C(=O)NCC(=O)NCCCO [Compound 9, L-Aspartyl-L-3-(1-naphthyl)alanyl-L-asparaginyl-L-alanyl-L-valyl-glycine-3-hydroxypropylamide] (H-D[1Nal]NAVG-{NH(3-hydroxypropyl)}) | 8250 | 
CC(C)[C@H](NC(=O)[C@H](C)NC(=O)[C@H](CC(N)=O)NC(=O)[C@H](Cc1c[nH]c2ccccc12)NC(=O)[C@@H](N)CC(=O)O)C(=O)NCC(=O)NCCCO [Compound 10, L-Aspartyl-L-tryptophanyl-L-asparaginyl-L-alanyl-L-valyl-glycine-3-hydroxypropylamide] (H-DWNAVG-{NH(3-hydroxypropyl)}) | 8570 | 
CC(C)[C@H](NC(=O)[C@H](C)NC(=O)[C@H](CC(N)=O)NC(=O)[C@H](Cc1ccccc1)NC(=O)[C@@H](N)CC(=O)O)C(=O)NCC(=O)NCCCO [Compound 11, L-Aspartyl-L-phenylalanyl-L-asparaginyl-L-alanyl-L-valyl-glycine-3-hydroxypropylamide] (H-DFNAVG-{NH(3-hydroxypropyl)}) | 3380 | 
CC(C)[C@H](NC(=O)[C@H](C)NC(=O)[C@H](CC(N)=O)NC(=O)[C@H](Cc1ccc(O)cc1)NC(=O)[C@@H](N)CC(=O)O)C(=O)NCC(=O)NCCCO [Compound 12, L-Aspartyl-L-tyrosyl-L-asparaginyl-L-alanyl-L-valyl-glycine-3-hydroxypropylamide] (H-DYNAVG-{NH(3-hydroxypropyl)}) | 3790 | 
CC(C)[C@H](NC(=O)[C@H](C)NC(=O)[C@H](CC(N)=O)NC(=O)[C@H](Cc1csc2ccccc12)NC(=O)[C@@H](N)CC(=O)O)C(=O)NCC(=O)NCCCO [Compound 13, L-Aspartyl-L-3-(3-benzothienyl)alanyl-L-asparaginyl-L-alanyl-L-valyl-glycine-3-hydroxypropylamide] (H-D[Bta]NAVG-{NH(3-hydroxypropyl)}) | 7030 | 
CC(C)[C@H](NC(=O)[C@H](C)NC(=O)[C@H](CC(N)=O)NC(=O)[C@H](Cc1ccc(-c2ccccc2)cc1)NC(=O)[C@@H](N)CC(=O)O)C(=O)NCC(=O)NCCCO [Compound 14, L-Aspartyl-L-3-(4-biphenyl)alanyl-L-asparaginyl-L-alanyl-L-valyl-glycine-3-hydroxypropylamide] (H-D[Bip]NAVG-{NH(3-hydroxypropyl)}) | 940 | 
